Reference: the NIST ThermoML archive (doi:10.1021/je050175u)
Several values for one entry are separate records, joined by “and”; a condition that tells them apart may be missing. Identical values can stand only once.

Test: excess molar enthalpy (molar enthalpy of mixing); xn = mol fraction of the nth substance listed
Details: Liquid, Flow calorimetry

CC(C)CO [2-methyl-1-propanol] + COC(C)=O
Details | excess molar enthalpy
298.15 K, 5000 kPa, x2 = 0.303 | 0.341 kcal/mol
298.15 K, 5000 kPa, x2 = 0.352 | 0.368 kcal/mol
298.15 K, 5000 kPa, x2 = 0.402 | 0.388 kcal/mol
298.15 K, 5000 kPa, x2 = 0.453 | 0.401 kcal/mol
298.15 K, 5000 kPa, x2 = 0.504 | 0.405 kcal/mol
298.15 K, 5000 kPa, x2 = 0.553 | 0.402 kcal/mol
298.15 K, 5000 kPa, x2 = 0.603 | 0.392 kcal/mol
298.15 K, 5000 kPa, x2 = 0.654 | 0.374 kcal/mol
298.15 K, 5000 kPa, x2 = 0.702 | 0.347 kcal/mol
298.15 K, 5000 kPa, x2 = 0.751 | 0.315 kcal/mol
298.15 K, 5000 kPa, x2 = 0.801 | 0.271 kcal/mol
298.15 K, 5000 kPa, x2 = 0.851 | 0.219 kcal/mol
298.15 K, 5000 kPa, x2 = 0.902 | 0.154 kcal/mol
298.15 K, 5000 kPa, x2 = 0.951 | 0.0827 kcal/mol
298.15 K, 10000 kPa, x2 = 0.049 | 0.0751 kcal/mol
298.15 K, 10000 kPa, x2 = 0.099 | 0.146 kcal/mol
298.15 K, 10000 kPa, x2 = 0.15 | 0.208 kcal/mol
298.15 K, 10000 kPa, x2 = 0.199 | 0.259 kcal/mol
298.15 K, 10000 kPa, x2 = 0.249 | 0.303 kcal/mol
298.15 K, 10000 kPa, x2 = 0.3 | 0.339 kcal/mol
298.15 K, 10000 kPa, x2 = 0.349 | 0.366 kcal/mol
298.15 K, 10000 kPa, x2 = 0.401 | 0.388 kcal/mol
298.15 K, 10000 kPa, x2 = 0.449 | 0.4 kcal/mol
298.15 K, 10000 kPa, x2 = 0.5 | 0.404 kcal/mol
298.15 K, 10000 kPa, x2 = 0.55 | 0.402 kcal/mol
298.15 K, 10000 kPa, x2 = 0.6 | 0.392 kcal/mol
298.15 K, 10000 kPa, x2 = 0.65 | 0.374 kcal/mol
298.15 K, 10000 kPa, x2 = 0.699 | 0.349 kcal/mol
298.15 K, 10000 kPa, x2 = 0.752 | 0.313 kcal/mol
298.15 K, 10000 kPa, x2 = 0.798 | 0.272 kcal/mol
298.15 K, 10000 kPa, x2 = 0.849 | 0.218 kcal/mol
298.15 K, 10000 kPa, x2 = 0.901 | 0.154 kcal/mol
298.15 K, 10000 kPa, x2 = 0.95 | 0.081 kcal/mol
308.15 K, 10000 kPa, x2 = 0.047 | 0.0714 kcal/mol
308.15 K, 10000 kPa, x2 = 0.098 | 0.148 kcal/mol
308.15 K, 10000 kPa, x2 = 0.146 | 0.213 kcal/mol
308.15 K, 10000 kPa, x2 = 0.193 | 0.266 kcal/mol
308.15 K, 10000 kPa, x2 = 0.243 | 0.314 kcal/mol
308.15 K, 10000 kPa, x2 = 0.291 | 0.352 kcal/mol
308.15 K, 10000 kPa, x2 = 0.343 | 0.383 kcal/mol
308.15 K, 10000 kPa, x2 = 0.39 | 0.404 kcal/mol
308.15 K, 10000 kPa, x2 = 0.492 | 0.426 kcal/mol and 0.423 kcal/mol
308.15 K, 10000 kPa, x2 = 0.541 | 0.424 kcal/mol
308.15 K, 10000 kPa, x2 = 0.591 | 0.415 kcal/mol
308.15 K, 10000 kPa, x2 = 0.641 | 0.398 kcal/mol
308.15 K, 10000 kPa, x2 = 0.692 | 0.371 kcal/mol
308.15 K, 10000 kPa, x2 = 0.744 | 0.335 kcal/mol
308.15 K, 10000 kPa, x2 = 0.794 | 0.291 kcal/mol
308.15 K, 10000 kPa, x2 = 0.896 | 0.168 kcal/mol
308.15 K, 10000 kPa, x2 = 0.947 | 0.0912 kcal/mol

COC(C)=O [methyl ethanoate] + CC(C)O
excess molar enthalpy [kcal/mol]
Details | 5000 kPa | 10000 kPa
298.15 K, x1 = 0.1 | 0.133 | 0.132
298.15 K, x1 = 0.151 | 0.19 | 0.19
298.15 K, x1 = 0.199 | 0.235 | –
298.15 K, x1 = 0.201 | – | 0.238
298.15 K, x1 = 0.249 | 0.276 | –
298.15 K, x1 = 0.251 | – | 0.278
298.15 K, x1 = 0.299 | 0.308 | –
298.15 K, x1 = 0.301 | – | 0.31
298.15 K, x1 = 0.349 | 0.334 | –
298.15 K, x1 = 0.351 | – | 0.335
298.15 K, x1 = 0.4 | – | 0.354
298.15 K, x1 = 0.401 | 0.355 | –
298.15 K, x1 = 0.45 | 0.367 | 0.366
298.15 K, x1 = 0.499 | 0.374 | –
298.15 K, x1 = 0.501 | – | 0.372
298.15 K, x1 = 0.55 | 0.374 | 0.371
298.15 K, x1 = 0.599 | 0.367 | –
298.15 K, x1 = 0.601 | – | 0.363
298.15 K, x1 = 0.649 | 0.352 | –
298.15 K, x1 = 0.651 | – | 0.348
298.15 K, x1 = 0.699 | – | 0.327
298.15 K, x1 = 0.7 | 0.331 | –
298.15 K, x1 = 0.749 | – | 0.296
298.15 K, x1 = 0.75 | 0.3 | –
298.15 K, x1 = 0.799 | 0.262 | 0.258
298.15 K, x1 = 0.851 | 0.211 | 0.207
298.15 K, x1 = 0.9 | 0.154 | 0.15
298.15 K, x1 = 0.949 | 0.0855 | 0.081
308.15 K, x1 = 0.048 | – | 0.0745
308.15 K, x1 = 0.097 | – | 0.142
308.15 K, x1 = 0.145 | – | 0.199
308.15 K, x1 = 0.195 | – | 0.251
308.15 K, x1 = 0.243 | – | 0.293
308.15 K, x1 = 0.293 | – | 0.329
308.15 K, x1 = 0.342 | – | 0.357
308.15 K, x1 = 0.392 | – | 0.379
308.15 K, x1 = 0.441 | – | 0.393
308.15 K, x1 = 0.49 | – | 0.4
308.15 K, x1 = 0.541 | – | 0.4
308.15 K, x1 = 0.592 | – | 0.392
308.15 K, x1 = 0.643 | – | 0.376
308.15 K, x1 = 0.693 | – | 0.354
308.15 K, x1 = 0.743 | – | 0.324
308.15 K, x1 = 0.793 | – | 0.283
308.15 K, x1 = 0.897 | – | 0.169
308.15 K, x1 = 0.949 | – | 0.0908

COC(C)=O [methyl ethanoate] + CCCCCO
excess molar enthalpy [kcal/mol]
Details | 298.15 K | 308.15 K
5000 kPa, x1 = 0.049 | 0.0821 | –
5000 kPa, x1 = 0.1 | 0.157 | –
5000 kPa, x1 = 0.15 | 0.22 | –
5000 kPa, x1 = 0.2 | 0.273 | –
5000 kPa, x1 = 0.249 | 0.314 | –
5000 kPa, x1 = 0.299 | 0.349 | –
5000 kPa, x1 = 0.349 | 0.375 | –
5000 kPa, x1 = 0.401 | 0.394 | –
5000 kPa, x1 = 0.451 | 0.404 | –
5000 kPa, x1 = 0.5 | 0.407 | –
5000 kPa, x1 = 0.55 | 0.403 | –
5000 kPa, x1 = 0.599 | 0.391 | –
5000 kPa, x1 = 0.65 | 0.371 | –
5000 kPa, x1 = 0.749 | 0.31 | –
5000 kPa, x1 = 0.801 | 0.264 | –
5000 kPa, x1 = 0.85 | 0.213 | –
5000 kPa, x1 = 0.901 | 0.15 | –
5000 kPa, x1 = 0.95 | 0.08 | –
10000 kPa, x1 = 0.049 | 0.0827 | –
10000 kPa, x1 = 0.051 | – | 0.0858
10000 kPa, x1 = 0.099 | 0.158 | 0.162
10000 kPa, x1 = 0.15 | 0.221 | 0.223
10000 kPa, x1 = 0.199 | 0.273 | 0.281
10000 kPa, x1 = 0.248 | 0.315 | –
10000 kPa, x1 = 0.251 | – | 0.325
10000 kPa, x1 = 0.299 | 0.35 | 0.361
10000 kPa, x1 = 0.348 | 0.375 | –
10000 kPa, x1 = 0.351 | – | 0.388
10000 kPa, x1 = 0.4 | 0.394 | 0.406
10000 kPa, x1 = 0.45 | 0.404 | 0.418
10000 kPa, x1 = 0.499 | 0.407 | 0.419
10000 kPa, x1 = 0.55 | 0.403 | 0.415
10000 kPa, x1 = 0.599 | 0.391 | 0.402
10000 kPa, x1 = 0.649 | 0.371 | 0.382
10000 kPa, x1 = 0.701 | – | 0.351
10000 kPa, x1 = 0.748 | 0.309 | –
10000 kPa, x1 = 0.752 | – | 0.316
10000 kPa, x1 = 0.8 | 0.263 | 0.272
10000 kPa, x1 = 0.85 | 0.21 | 0.22
10000 kPa, x1 = 0.901 | 0.146 | 0.152
10000 kPa, x1 = 0.95 | 0.0747 | 0.0782
